Reference: PubChem BioAssay (NCI)
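Method: 48-hour compound exposure of cells in 96-well plates, five concentrations, linear interpolation of endpoints. GI50: concentration for 50% inhibition of growth. TGI is the concentration that stops growth completely.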

What was measured:
Assay in all cases: NCI-60 cell line screen, 48 h
[1] = test system: SF-539 CNS
[2] = test system: PC-3 prostate
[3] = test system: HS 578T breast
[4] = test system: NCI/ADR-RES ovarian
[5] = test system: HCC-2998 colon
[6] = test system: CAKI-1 renal
[7] = test system: NCI-H226 lung
[8] = test system: KM12 colon
[9] = test system: HCT-15 colon
[10] = test system: SR leukemia
[11] = test system: HT29 colon
[12] = test system: NCI-H460 lung
[13] = test system: HOP-92 NSCLC
[14] = test system: EKVX NSCLC
[15] = test system: UO-31 renal
[16] = test system: NCI-H23 lung
[17] = test system: A498 renal
[18] = test system: MDA-MB-231 breast
[19] = test system: SK-MEL-28 melanoma
[20] = test system: 786-0 renal
[21] = test system: SF-295 CNS
[22] = test system: OVCAR-8 ovarian
[23] = test system: CCRF-CEM leukemia
[24] = test system: UACC-257 melanoma
[25] = test system: HCT-116 colon
[26] = test system: T-47D breast
[27] = test system: COLO 205 colon
[28] = test system: SK-MEL-5 melanoma
[29] = test system: SF-268 CNS
[30] = test system: MCF7 breast
[31] = test system: SK-MEL-2 melanoma
[32] = test system: RXF 393 renal
[33] = test system: DU-145 prostate
[34] = test system: MDA-MB-435
[35] = test system: LOX IMVI melanoma
[36] = test system: HL-60(TB) leukemia
[37] = test system: SK-OV-3 ovarian
[38] = test system: ACHN renal
[39] = test system: HOP-62 NSCLC
[40] = test system: SNB-75 CNS
[41] = test system: TK-10 renal
[42] = test system: IGROV1 ovarian
[43] = test system: M14 melanoma
[44] = test system: BT-549 breast
[45] = test system: MOLT-4 leukemia
[46] = test system: U251 CNS
[47] = test system: OVCAR-4 ovarian
[48] = test system: SW-620 colon
[49] = test system: UACC-62 melanoma
[50] = test system: K-562 leukemia
[51] = test system: SNB-19 CNS
[52] = test system: SN12C renal
[53] = test system: MALME-3M melanoma
[54] = test system: OVCAR-3 ovarian
[55] = test system: A549 NSCLC
[56] = test system: OVCAR-5 ovarian
[57] = test system: RPMI-8226 leukemia
[58] = test system: NCI-H522 lung

O=c1[nH]c2cc(F)c(F)cc2nc1Cc1ccccc1
TGI [1]: > 100 µM
TGI [2]: > 100 µM
TGI [3]: > 100 µM
TGI [4]: > 100 µM
TGI [5]: > 100 µM
TGI [6]: > 100 µM
TGI [7]: > 100 µM
TGI [8]: > 100 µM
TGI [9]: > 100 µM
TGI [10]: > 100 µM
TGI [11]: > 100 µM
TGI [12]: > 100 µM
TGI [13]: > 100 µM
TGI [14]: > 100 µM
TGI [15]: > 100 µM
TGI [16]: > 100 µM
TGI [17]: > 100 µM
TGI [18]: > 100 µM
TGI [19]: > 100 µM
TGI [20]: > 100 µM
TGI [21]: > 100 µM
TGI [22]: > 100 µM
TGI [23]: > 100 µM
TGI [24]: > 100 µM
TGI [25]: > 100 µM
TGI [26]: > 100 µM
TGI [27]: > 100 µM
TGI [28]: > 100 µM
TGI [29]: > 100 µM
TGI [30]: > 100 µM
TGI [31]: > 100 µM
TGI [32]: > 100 µM
TGI [33]: > 100 µM
TGI [34]: > 100 µM
TGI [35]: > 100 µM
TGI [36]: > 100 µM
TGI [37]: > 100 µM
TGI [38]: > 100 µM
TGI [39]: > 100 µM
TGI [40]: > 100 µM
TGI [41]: > 100 µM
TGI [42]: > 100 µM
TGI [43]: > 100 µM
TGI [44]: > 100 µM
TGI [45]: > 100 µM
TGI [46]: > 100 µM
TGI [47]: > 100 µM
TGI [48]: > 100 µM
TGI [49]: > 100 µM
TGI [50]: > 100 µM
TGI [51]: > 100 µM

C=C1C(=O)O[C@H]2[C@H]1CC/C(COC(=O)CCSSCCC(=O)OC/C1=C/CC[C@@]3(C)O[C@H]3[C@H]3OC(=O)C(=C)[C@@H]3CC1)=C\CC[C@@]1(C)O[C@@H]21
GI50 [1]: 1.5 µM
TGI [1]: 2.91 µM
GI50 [52]: 1.14 µM
TGI [52]: 2.58 µM
GI50 [53]: 1.08 µM
TGI [53]: 2.54 µM
GI50 [2]: 1.33 µM
TGI [2]: 2.9 µM
GI50 [3]: 1.95 µM
TGI [3]: 7.45 µM
GI50 [4]: 2.86 µM
TGI [4]: 10.2 µM
GI50 [5]: 1.98 µM
TGI [5]: 3.93 µM
GI50 [6]: 1.28 µM
TGI [6]: 2.54 µM
GI50 [7]: 1.6 µM
TGI [7]: 3.34 µM
GI50 [8]: 1.83 µM
TGI [8]: 3.69 µM
GI50 [9]: 0.429 µM
TGI [9]: 1.76 µM
GI50 [10]: 0.308 µM
TGI [10]: 2.77 µM
GI50 [11]: 0.819 µM
TGI [11]: 2.39 µM
GI50 [12]: 1.59 µM
TGI [12]: 3.34 µM
GI50 [13]: 1.02 µM
TGI [13]: 2.54 µM
GI50 [14]: 1.61 µM
TGI [14]: 3.47 µM
GI50 [15]: 1.08 µM
TGI [15]: 2.28 µM
GI50 [16]: 1.73 µM
TGI [16]: 3.72 µM
GI50 [18]: 1.23 µM
TGI [18]: 2.66 µM
GI50 [19]: 1.49 µM
TGI [19]: 2.95 µM
GI50 [20]: 1.28 µM
TGI [20]: 2.6 µM
GI50 [21]: 3.5 µM
TGI [21]: 13.9 µM
GI50 [22]: 1.26 µM
TGI [22]: 3.02 µM
GI50 [23]: 0.225 µM
TGI [23]: 1.19 µM
GI50 [54]: 0.65 µM
TGI [54]: 1.95 µM
GI50 [24]: 1.6 µM
TGI [24]: 3.43 µM
GI50 [25]: 0.33 µM
TGI [25]: 1.24 µM
GI50 [26]: 1.2 µM
TGI [26]: 4.01 µM
GI50 [27]: 1.16 µM
TGI [27]: 2.99 µM
GI50 [28]: 1.44 µM
TGI [28]: 2.78 µM
GI50 [29]: 1.46 µM
TGI [29]: 3.08 µM
GI50 [30]: 0.426 µM
TGI [30]: 2.32 µM
GI50 [55]: 1.99 µM
TGI [55]: 4.27 µM
GI50 [31]: 1.93 µM
TGI [31]: 4.16 µM
GI50 [32]: 0.247 µM
TGI [32]: 0.98 µM
GI50 [33]: 1.3 µM
TGI [33]: 2.57 µM
GI50 [34]: 1.4 µM
TGI [34]: 3.07 µM
GI50 [35]: 1.6 µM
TGI [35]: 3.12 µM
GI50 [36]: 0.448 µM
TGI [36]: 2.19 µM
GI50 [37]: 6.67 µM
TGI [37]: 19 µM
GI50 [38]: 0.897 µM
TGI [38]: 2.11 µM
GI50 [39]: 1.98 µM
TGI [39]: 4.64 µM
GI50 [40]: 1.8 µM
TGI [40]: 3.48 µM
GI50 [41]: 1.62 µM
TGI [41]: 3.19 µM
GI50 [56]: 1.59 µM
TGI [56]: 3.16 µM
GI50 [57]: 1.06 µM
TGI [57]: 3.9 µM
GI50 [42]: 1.19 µM
TGI [42]: 2.66 µM
GI50 [58]: 0.688 µM
TGI [58]: 2.27 µM
GI50 [43]: 1.34 µM
TGI [43]: 2.88 µM
GI50 [44]: 1.1 µM
TGI [44]: 2.33 µM
GI50 [45]: 0.437 µM
TGI [45]: 2.61 µM
GI50 [46]: 1.41 µM
TGI [46]: 2.86 µM
GI50 [47]: 1.52 µM
TGI [47]: 3.12 µM
GI50 [48]: 0.458 µM
TGI [48]: 1.9 µM
GI50 [49]: 1.56 µM
TGI [49]: 3.16 µM
GI50 [50]: 0.465 µM
TGI [50]: 2.85 µM
GI50 [51]: 1.49 µM
TGI [51]: 3.16 µM
